# Laboratory results taken from patent US6867207B2, “IL-5 inhibiting 6-azauracil derivatives” (Janssen Pharmaceutica N.V., priority 1997, dated 2005).
# Tested on: IL-5 production
# Experiment: In vitro inhibition of IL-5 production in human blood (phytohemagglutinin-stimulated whole blood, ELISA);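 also: values marked with an asterisk were tested at 10 µM and unmarked values at 1 µM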
# Assay type: cell-based
# Settings: test dose 1×10^−6 M, 48 hours
# Description: In Vitro Inhibition of IL-5 Production in Human Blood
# Human Whole Blood Stimulation
# Peripheral blood from healthy male donors was drawn into heparinized syringes (12.5 U heparin/ml). Blood samples were three-fold diluted in RMPI 1640 medium (Life Technologies, Belgium) supplemented with 2 mM L-glutamine, 100 U/ml penicillin and 100 μg/ml streptomycin, and 300 μl fractions were distributed in 24-well multidisc plates. Blood samples were preincubated (60 minutes at 37° C.) in a humidified 6% CO2-atmosphere with 100 μl of drug solvent (final concentration 0.02% dimethylsulfoxide in RPMI 1640) or with 100 μl of an appropriate dose of test compound before being stimulated by the addition of 100 μl of phytohemagglutinin HA17 (Murex, UK) at a final concentration of 2 μg/ml. After 48 hours, cell-free supernatant fluids were collected by centrifugation and stored at −70° C. until tested for the presence of IL-5.
# IL-5 measurements were conducted as described in Van Wauwe et al. (1996, Inflamm Res, 45, 357-363) on page 358 using ELISA.
# Table 9 lists the percentage inhibition of IL-5 production (column “% inh”) at a test dose of 1×10^−6 M, or in case the percentage inhibition is marked with an “*” 1×10^−5 M, the compounds of the present invention.
row,SMILES,% inh. (percentage inhibition of IL-5 production) [%]
1,"O=c1cnn(-c2cc(Cl)c(C(c3ccc(Cl)cc3)c3nc(-c4cccc(F)c4)cs3)c(Cl)c2)c(=O)[nH]1 (single isomer, unassigned) [Comp 318]",81
2,CN(C)C(=O)Cc1sc(C(c2ccc(Cl)cc2)c2c(Cl)cc(-n3ncc(=O)[nH]c3=O)cc2Cl)nc1-c1ccccc1 (racemic) [Comp 275],94
3,O=c1cnn(-c2ccc(C(Nc3nccs3)c3ccc(Cl)cc3)c(Cl)c2)c(=O)[nH]1 (racemic) [Compound 44],40
4,Cc1cc(C)nc(SC(c2ccc(Cl)cc2)c2ccc(-n3ncc(=O)[nH]c3=O)cc2Cl)n1 (racemic) [Compound 66],64
5,O=c1cnn(-c2cc(Cl)c(C(Sc3nc(-c4ccco4)cs3)c3ccc(Cl)c(C(F)(F)F)c3)c(Cl)c2)c(=O)[nH]1 (racemic) [Compound 399],93
6,O=c1cnn(-c2ccc(C(Sc3nc4ccccc4s3)c3ccc(Cl)cc3)c(Cl)c2)c(=O)[nH]1 (racemic) [Compound 77],65
7,COCCNC(=O)Cc1sc(C(c2ccc(Cl)cc2)c2c(Cl)cc(-n3ncc(=O)[nH]c3=O)cc2Cl)nc1-c1ccccc1 (racemic) [Comp 320],94
8,O=c1cnn(-c2ccc(C(c3ccc(Cl)cc3)c3nnc(-c4ccccc4)s3)c(Cl)c2)c(=O)[nH]1 (centres unmarked) [Comp 414],30
9,O=c1cnn(-c2ccc(C(c3ccc(Cl)cc3)c3sc(-c4ccccc4)nc3-c3ccccc3Cl)c(Cl)c2)c(=O)[nH]1 (racemic) [Compound 144],40
10,CCOCCc1nnc(C(c2ccc(Cl)cc2)c2c(Cl)cc(-n3ncc(=O)[nH]c3=O)cc2Cl)o1 (racemic) [Compound 181],55
11,O=c1cnn(-c2cc(Cl)c(C(c3ccc(Cl)cc3)c3sc(-c4ccccc4Cl)nc3-c3ccccc3Cl)c(Cl)c2)c(=O)[nH]1 (racemic) [Compound 147],50
12,O=C(Cc1sc(C(c2ccc(Cl)cc2)c2c(Cl)cc(-n3ncc(=O)[nH]c3=O)cc2Cl)nc1-c1ccccc1)NC1CCN(Cc2ccccc2)CC1 (racemic) [Comp 326],89
13,O=c1cnn(-c2cc(Cl)c(C(Sc3nccc(NC(CO)CO)n3)c3ccc(Cl)cc3)c(Cl)c2)c(=O)[nH]1 (racemic) [Compound 361],28
14,NS(=O)(=O)Nc1cccc(-c2nnc(C(c3ccc(Cl)cc3)c3c(Cl)cc(-n4ncc(=O)[nH]c4=O)cc3Cl)o2)c1.O (racemic) [Compound 221],−2
15,Cc1ccc2[nH]c(SC(c3ccc(Cl)cc3)c3ccc(-n4ncc(=O)[nH]c4=O)cc3Cl)nc2c1 (racemic) [Compound 62],30
16,O=c1cnn(-c2cc(Cl)c(C(c3ccc(Cl)cc3)c3nnc(CCOc4ccccc4)o3)c(Cl)c2)c(=O)[nH]1 (racemic) [Compound 187],25
17,O=c1cnn(-c2cc(Cl)c(C(c3ccc(Cl)c(C(F)(F)F)c3)c3nc(-c4ccccc4Cl)cs3)c(Cl)c2)c(=O)[nH]1 (racemic) [Comp 254],86
18,O=c1cnn(-c2cc(Cl)c(C(c3ccc(Cl)cc3)c3nc(-c4ccccc4Br)cs3)c(Cl)c2)c(=O)[nH]1 (racemic) [Comp 244],95
19,O=c1cnn(-c2cc(Cl)c(C(c3ccc(Cl)cc3)c3nc(-c4ccccc4F)cs3)c(Cl)c2)c(=O)[nH]1 (racemic) [Comp 242],98

# Same assay, conditions: test dose 1×10^−6 M, 48 hours, read-out: % inh. (percentage inhibition of IL-5 production)
row,SMILES,inhibition at 1 µM [%]
1,"O=c1cnn(-c2cc(Cl)c(C(c3ccc(Cl)cc3)c3nc(-c4ccccc4)cs3)c(Cl)c2)c(=O)[nH]1 (racemic) [Compound 38, (±)-2-[3,5-dichloro-4-[(4-chlorophenyl)(4-phenyl-2-thiazolyl)methyl]phenyl]-1,2,4-triazine-3,5(2H,4H)-dione]",92
